Source: patent US12291519B2, “2-hydroxycycloalkane-1-carbamoyl” (Idorsia Pharmaceuticals Ltd, priority 2019, dated 2025)

Columns and labels:
[1] = molecular target: human Gal-3 (hGal-3) (Homo sapiens (Human), UniProt P17931); assay: Competitive binding assay: biotinylated hGal-3 binding to microplate-adsorbed asialofetuin (ASF); details: Activity on hGal-3; binding of biotinylated hGal-3 to ASF-coated plates; mean values
Procedure, shortened: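 Serially diluted compounds competed with biotinylated human Gal-3 for binding to plate-adsorbed asialofetuin over 3 h at 4 °C. Bound Gal-3 was detected with streptavidin-peroxidase (80 ng/mL, 1 h, 4 °C) and ABTS substrate. IC50 values are means of several measurements.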

[2] = molecular target: human Gal-1 (hGal-1); assay: Competitive binding assay: biotinylated hGal-1 binding to microplate-adsorbed asialofetuin (ASF); details: Activity on hGal-1; binding of biotinylated hGal-1 to ASF-coated plates; mean values
Chain of human Gal-1 (hGal-1) (P09382 2-135 limits assumed): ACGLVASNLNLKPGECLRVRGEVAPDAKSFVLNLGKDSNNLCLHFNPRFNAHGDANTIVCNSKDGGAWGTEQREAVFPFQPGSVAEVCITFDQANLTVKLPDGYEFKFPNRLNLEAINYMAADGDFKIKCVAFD
Procedure, shortened: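 Biotinylated hGal-1 (300–1000 ng/mL; optionally a cysteine-free all-serine variant) incubated 3 h at 4 °C with compound on asialofetuin-coated plates, then streptavidin-peroxidase 1 h at 4 °C. ABTS readout at OD 410 nm after 30–45 min; IC50 given as mean of several runs.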

Chain of human Gal-3 (hGal-3) (P17931 whole entry): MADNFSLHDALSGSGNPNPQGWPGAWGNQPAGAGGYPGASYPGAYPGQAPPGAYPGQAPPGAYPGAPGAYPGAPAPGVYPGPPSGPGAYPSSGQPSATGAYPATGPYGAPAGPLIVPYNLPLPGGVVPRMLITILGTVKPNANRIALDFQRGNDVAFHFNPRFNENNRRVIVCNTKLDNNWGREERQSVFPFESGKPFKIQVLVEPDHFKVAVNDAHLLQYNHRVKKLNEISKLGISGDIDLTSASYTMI

| Compound | IC50 [1] | IC50 [2] |
| --- | --- | --- |
| CO[C@@H]1[C@@H](n2cc(-c3cc(F)c(Cl)c(Cl)c3)nn2)[C@@H](O)[C@@H](CO)O[C@H]1C(=O)N(c1ccc(F)c(F)c1)[C@H]1CCCC[C@@H]1O [Example 167, (2R,3R,4S,5R,6R)-4-(4-(3,4-dichloro-5-fluorophenyl)-1H-1,2,3-triazol-1-yl)-N-(3,4-difluorophenyl)-5-hydroxy-N-((1S,2S)-2-hydroxycyclohexyl)-6-(hydroxymethyl)-3-methoxytetrahydro-2H-pyran-2-carboxamide] | 64 nM | 1240 nM |
| CO[C@@H]1[C@@H](n2cc(-c3cc(F)c(Cl)c(Cl)c3)nn2)[C@@H](O)[C@@H](CO)O[C@H]1C(=O)N(c1ccc2ncsc2c1)[C@H]1CCCC[C@@H]1O [Example 168, (2R,3R,4S,5R,6R)-N-(benzo[d]thiazol-6-yl)-4-(4-(3,4-dichloro-5-fluorophenyl)-1H-1,2,3-triazol-1-yl)-5-hydroxy-N-((1S,2S)-2-hydroxycyclohexyl)-6-(hydroxymethyl)-3-methoxytetrahydro-2H-pyran-2-carboxamide] | 25 nM | 672 nM |
| CO[C@@H]1[C@@H](n2cc(-c3ccc(C)c(F)c3)nn2)[C@@H](O)[C@@H](CO)O[C@H]1C(=O)N(c1cc(Cl)cc(C#N)c1)[C@H]1CCCC[C@@H]1O [Example 170, (2R,3R,4S,5R,6R)-N-(3-chloro-5-cyanophenyl)-4-(4-(3-fluoro-4-methylphenyl)-1H-1,2,3-triazol-1-yl)-5-hydroxy-N-((1S,2S)-2-hydroxycyclohexyl)-6-(hydroxymethyl)-3-methoxytetrahydro-2H-pyran-2-carboxamide] | 18 nM | 569 nM |
| COc1cc(F)c(F)cc1-c1cn([C@H]2[C@@H](O)[C@@H](CO)O[C@@H](C(=O)N(c3cc(Cl)cc(C#N)c3)[C@H]3CCCC[C@@H]3O)[C@@H]2OC)nn1 [Example 174, (2R,3R,4S,5R,6R)-N-(3-chloro-5-cyanophenyl)-4-(4-(4,5-difluoro-2-methoxyphenyl)-1H-1,2,3-triazol-1-yl)-5-hydroxy-N-((1S,2S)-2-hydroxycyclohexyl)-6-(hydroxymethyl)-3-methoxytetrahydro-2H-pyran-2-carboxamide] | 40 nM | 750 nM |
| CO[C@@H]1[C@@H](n2cc(-c3ccc(Br)c(F)c3F)nn2)[C@@H](O)[C@@H](CO)O[C@H]1C(=O)N(c1cc(Cl)cc(C#N)c1)[C@H]1CCCC[C@@H]1O [Example 175, (2R,3R,4S,5R,6R)-4-(4-(4-bromo-2,3-difluorophenyl)-1H-1,2,3-triazol-1-yl)-N-(3-chloro-5-cyanophenyl)-5-hydroxy-N-((1S,2S)-2-hydroxycyclohexyl)-6-(hydroxymethyl)-3-methoxytetrahydro-2H-pyran-2-carboxamide] | 13 nM | 386 nM |
| CO[C@@H]1[C@@H](n2cc(-c3ccc(Br)c(F)c3F)nn2)[C@@H](O)[C@@H](CO)O[C@H]1C(=O)N(c1cc(F)cc(C#N)c1)[C@H]1CCCC[C@@H]1O [Example 176, (2R,3R,4S,5R,6R)-4-(4-(4-bromo-2,3-difluorophenyl)-1H-1,2,3-triazol-1-yl)-N-(3-cyano-5-fluorophenyl)-5-hydroxy-N-((1S,2S)-2-hydroxycyclohexyl)-6-(hydroxymethyl)-3-methoxytetrahydro-2H-pyran-2-carboxamide] | 15 nM | 682 nM |
| CO[C@@H]1[C@@H](n2cc(-c3ccc(Br)c(F)c3F)nn2)[C@@H](O)[C@@H](CO)O[C@H]1C(=O)N(c1cc(Cl)cc(Cl)c1)[C@H]1CCCC[C@@H]1O [Example 177, (2R,3R,4S,5R,6R)-4-(4-(4-bromo-2,3-difluorophenyl)-1H-1,2,3-triazol-1-yl)-N-(3,5-dichlorophenyl)-5-hydroxy-N-((1S,2S)-2-hydroxycyclohexyl)-6-(hydroxymethyl)-3-methoxytetrahydro-2H-pyran-2-carboxamide] | 13 nM | 852 nM |
| CO[C@@H]1[C@@H](n2cc(-c3ccc(Cl)c(F)c3F)nn2)[C@@H](O)[C@@H](CO)O[C@H]1C(=O)N(c1cc(Cl)cc(C#N)c1)[C@H]1CCCC[C@@H]1O [Example 178, (2R,3R,4S,5R,6R)-4-(4-(4-chloro-2,3-difluorophenyl)-1H-1,2,3-triazol-1-yl)-N-(3-chloro-5-cyanophenyl)-5-hydroxy-N-((1S,2S)-2-hydroxycyclohexyl)-6-(hydroxymethyl)-3-methoxytetrahydro-2H-pyran-2-carboxamide] | 26 nM | 123 nM |
| CO[C@@H]1[C@@H](n2cc(-c3ccc(C#N)c(F)c3)nn2)[C@@H](O)[C@@H](CO)O[C@H]1C(=O)N(c1cc(Cl)cc(C#N)c1)[C@H]1CCCC[C@@H]1O [Example 181, (2R,3R,4S,5R,6R)-N-(3-chloro-5-cyanophenyl)-4-(4-(4-cyano-3-fluorophenyl)-1H-1,2,3-triazol-1-yl)-5-hydroxy-N-((1S,2S)-2-hydroxycyclohexyl)-6-(hydroxymethyl)-3-methoxytetrahydro-2H-pyran-2-carboxamide] | 29 nM | 618 nM |

These reach a lower IC50 [1]. Values come first.

| IC50 [1] | IC50 [2] | Compound |
| --- | --- | --- |
| 12 nM | 238 nM | CO[C@@H]1[C@@H](n2cc(-c3ccc(C)c(F)c3F)nn2)[C@@H](O)[C@@H](CO)O[C@H]1C(=O)N(c1cc(Cl)cc(C#N)c1)[C@H]1CCCC[C@@H]1O [Example 171, (2R,3R,4S,5R,6R)-N-(3-chloro-5-cyanophenyl)-4-(4-(2,3-difluoro-4-methylphenyl)-1H-1,2,3-triazol-1-yl)-5-hydroxy-N-((1S,2S)-2-hydroxycyclohexyl)-6-(hydroxymethyl)-3-methoxytetrahydro-2H-pyran-2-carboxamide] |
| 11 nM | 421 nM | Cc1ccc(-c2cn([C@H]3[C@@H](O)[C@@H](CO)O[C@@H](C(=O)N(c4cc(Cl)cc(C#N)c4)[C@H]4CCCC[C@@H]4O)[C@@H]3OCC(=O)O)nn2)c(F)c1F [Example 172, 2-(((2R,3R,4S,5R,6R)-2-((3-chloro-5-cyanophenyl)((1S,2S)-2-hydroxycyclohexyl)carbamoyl)-4-(4-(2,3-difluoro-4-methylphenyl)-1H-1,2,3-triazol-1-yl)-5-hydroxy-6-(hydroxymethyl)tetrahydro-2H-pyran-3-yl)oxy)acetic acid] |
| 10 nM | 591 nM | CO[C@@H]1[C@@H](n2cc(-c3ccc(Cl)c(F)c3)nn2)[C@@H](O)[C@@H](CO)O[C@H]1C(=O)N(c1cc(Cl)cc(Cl)c1)[C@H]1CCCC[C@@H]1O [Example 179, (2R,3R,4S,5R,6R)-4-(4-(4-chloro-3-fluorophenyl)-1H-1,2,3-triazol-1-yl)-N-(3,5-dichlorophenyl)-5-hydroxy-N-((1S,2S)-2-hydroxycyclohexyl)-6-(hydroxymethyl)-3-methoxytetrahydro-2H-pyran-2-carboxamide] |
| 9 nM | 509 nM | Cc1ccc(-c2cn([C@H]3[C@@H](O)[C@@H](CO)O[C@@H](C(=O)N(c4cc(Cl)cc(C#N)c4)[C@H]4CCCC[C@@H]4O)[C@@H]3OCC(=O)N3CCOCC3)nn2)c(F)c1F [Example 173, (2R,3R,4S,5R,6R)-N-(3-chloro-5-cyanophenyl)-4-(4-(2,3-difluoro-4-methylphenyl)-1H-1,2,3-triazol-1-yl)-5-hydroxy-N-((1S,2S)-2-hydroxycyclohexyl)-6-(hydroxymethyl)-3-(2-morpholino-2-oxoethoxy)tetrahydro-2H-pyran-2-carboxamide] |
